In patent US12297244B2, “Systems and methods for inhibiting γ-secretase production of amyloid-β peptides” (Rensselaer Polytechnic Institute, priority 2020, dated 2025):
Where two headings read alike, the source gives them in different places.

Assays:
[1] = target: T1, γ-secretase in the HeLa membrane (Homo sapiens, UniProt P05067); assay: AlphaLISA γ-secretase assay with biotinylated Sb4 (APP sequence) substrate; format: biochemical; parameters: fused on or other part: Biotin label on Sb4; details: from lower IC50 for Aβ42 than Aβ40
Source text: (§1) Referring now to FIG. 1, and without wishing to be bound by theory, γ-secretase cleaves within the transmembrane domain of the amyloid precursor protein (APPTM) to release Aβ, which aggregates to form neurotoxic oligomers and fibrils. […] Formula III decreased the production of Aβ40 and Aβ42 by γ-secretase in a dose dependent manner (FIG. 2).

[2] = target: T1, γ-secretase in the HeLa membrane; assay: as above; format: biochemical; parameters: other: γ-secretase in HeLa membrane, Sb4 substrate; fused on or other part: Biotin label on Sb4; details: γ-secretase in HeLa membrane, Sb4 substrate
Source text: as §1

T1 sequence (P05067 whole entry, the tested form may be a part): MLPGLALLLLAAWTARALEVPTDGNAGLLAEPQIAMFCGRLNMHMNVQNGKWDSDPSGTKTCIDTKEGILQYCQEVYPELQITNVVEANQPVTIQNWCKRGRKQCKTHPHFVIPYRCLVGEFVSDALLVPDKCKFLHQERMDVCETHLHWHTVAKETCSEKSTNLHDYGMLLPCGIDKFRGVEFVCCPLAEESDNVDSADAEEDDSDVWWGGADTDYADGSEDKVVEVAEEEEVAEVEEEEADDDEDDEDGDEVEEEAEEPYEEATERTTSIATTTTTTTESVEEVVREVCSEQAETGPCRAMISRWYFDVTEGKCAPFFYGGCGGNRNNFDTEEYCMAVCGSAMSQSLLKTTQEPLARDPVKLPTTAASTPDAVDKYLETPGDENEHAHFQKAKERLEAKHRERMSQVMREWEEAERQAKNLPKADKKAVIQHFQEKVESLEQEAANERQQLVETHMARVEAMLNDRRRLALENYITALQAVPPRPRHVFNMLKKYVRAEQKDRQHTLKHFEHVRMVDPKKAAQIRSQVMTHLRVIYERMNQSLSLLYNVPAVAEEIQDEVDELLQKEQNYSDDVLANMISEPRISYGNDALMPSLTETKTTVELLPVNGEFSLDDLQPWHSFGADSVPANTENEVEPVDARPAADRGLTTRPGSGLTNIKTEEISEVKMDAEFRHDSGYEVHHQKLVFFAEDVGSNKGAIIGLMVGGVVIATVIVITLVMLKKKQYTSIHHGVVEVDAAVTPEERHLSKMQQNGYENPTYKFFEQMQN

IC50 ([2]; read-out: IC50 for the inhibition of Aβ40 production): 3900 nM | IC50 ([2]; read-out: IC50 for the inhibition of Aβ42 production): 1900 nM
Compound: O=C(C=COc1ccc2ccccc2c1)c1ccc(F)cc1 [Formula III]
selectivity in inhibiting Aβ42 production over Aβ40 [1]: selectivity in inhibiting Aβ42 production over Aβ40
